Data published in patent publication US12304932B2, “PACAP stabilized peptide” (SENJU PHARMACEUTICAL CO., LTD., priority 2017, dated 2025).
Square brackets hold non-standard residues; d marks the D form. Peptide text beside a SMILES is read from it. Ala(1H-tetrazol-5-yl) = N[C@@H](Cc1nnn[nH]1)C(=O)O

Test: Peptide stability tests 2 and 3: Tris buffer pH 7.0, stored at 60° C., HPLC conditions 2
Assay type: physicochemical
Details: 100 μM peptide, Tris buffer pH 7.0, 60° C.; for survival rate after correction for water, 60° C., 2-week storage: 2 weeks
Experimental: (§1) Peptides 1, 2 and 6 to 9 synthesized in Example 2 were weighed and dissolved in Tris buffer (pH 7.0) to prepare 1.0 mM peptide solutions. The solutions were filtered with a Chromatdisk (product of Merck Millipore, Millex-GV, 0.22 μm). Each filtrate was diluted to 100 μM with Tris buffer (pH 7.0) and dispensed into a tube (Protein LoBind Tube by Eppendorf Co.). The prepared peptide solutions were incubated for 1 week or 2 weeks in a 60° C. thermostatic bath to obtain stored samples. A simultaneously prepared sample among the peptide solutions that was not stored was used as a standard sample (initial sample). The standard sample and the stored samples were stored at −30° C. until sample analysis.
Each stored sample was measured under the following HPLC analysis conditions 2, and the survival rate after correction for water for each peptide among the stored samples was calculated in the same manner as Example 3.
Column: XSelect CSH C18 by Waters Co., 5 μm, 4.6×250 mm
Guard column: XSelect CSH C18 by Waters. Co., 5 μm, 4.6×20 mm Guard Cartridge
Detection wavelength: 220 nm
Mobile phase A: 0.1% formic acid in water
Mobile phase B: 0.1% formic acid in acetonitrile
Measuring time: 20 minutes
Measuring sample injection rate: 50 μL
Column temperature: 40° C.
Mobile phase delivery: The mixing ratio of mobile phase A and mobile phase B was varied as shown in Table 5 for linear concentration gradient control.
as §1, with “Peptides 12 to 25, 27” for “Peptides 1, 2”, “and 28” for “and 6 to 9”, “for one” for “for 1”
The survival rate after correction for water for each peptide among the stored samples was calculated in the same manner as Example 4, and the results are shown in Table 7.
as §1, with “29” for “1, 2 and 6”, “34” for “9”, “for” for “for 1 week or”
The survival rate after correction for water for each peptide among the stored samples was calculated in the same manner as Example 4, and the results are shown in Table 7-2.

SMILES	survival rate after correction for water, 60° C., 1-week storage	survival rate after correction for water, 60° C., 2-week storage
CC[C@H](C)[C@H](NC(=O)CNC(=O)[C@H](Cc1nnn[nH]1)NC(=O)[C@H](C)NC(=O)[C@H](Cc1c[nH]cn1)NC(C)=O)C(=O)N[C@@H](Cc1ccccc1)C(=O)N[C@H](C(=O)N[C@@H](Cc1nnn[nH]1)C(=O)N[C@@H](CO)C(=O)N[C@@H](Cc1ccc(O)cc1)C(=O)N[C@@H](CO)C(=O)N[C@@H](CCCNC(=N)N)C(=O)N[C@@H](Cc1ccc(O)cc1)C(=O)N[C@@H](CCCNC(=N)N)C(=O)N[C@@H](CCCCN)C(=O)N[C@@H](CCC(N)=O)C(=O)N[C@@H](CC(C)C)C(=O)N[C@@H](C)C(=O)N[C@H](C(=O)N[C@@H](CCCCN)C(=O)N[C@@H](CCCCN)C(=O)N[C@@H](Cc1ccc(O)cc1)C(=O)N[C@@H](CC(C)C)C(=O)N[C@@H](C)C(=O)N[C@@H](C)C(=O)N[C@H](C(=O)N[C@@H](CC(C)C)C(N)=O)C(C)C)C(C)C)[C@@H](C)O [Peptide 14] (Ac-HA[Ala(1H-tetrazol-5-yl)]GIFT[Ala(1H-tetrazol-5-yl)]SYSRYRKQLAVKKYLAAVL-NH2)	96.7%	94.5%
CC[C@H](C)[C@H](NC(=O)CNC(=O)[C@H](Cc1nnn[nH]1)NC(=O)[C@H](CO)NC(=O)[C@H](Cc1c[nH]cn1)NC(C)=O)C(=O)N[C@@H](Cc1ccccc1)C(=O)N[C@H](C(=O)N[C@@H](Cc1nnn[nH]1)C(=O)N[C@@H](C)C(=O)N[C@@H](Cc1ccc(O)cc1)C(=O)N[C@@H](CO)C(=O)N[C@@H](CCCNC(=N)N)C(=O)N[C@@H](Cc1ccc(O)cc1)C(=O)N[C@@H](CCCNC(=N)N)C(=O)N[C@@H](CCCCN)C(=O)N[C@@H](CCC(N)=O)C(=O)N[C@@H](CC(C)C)C(=O)N[C@@H](C)C(=O)N[C@H](C(=O)N[C@@H](CCCCN)C(=O)N[C@@H](CCCCN)C(=O)N[C@@H](Cc1ccc(O)cc1)C(=O)N[C@@H](CC(C)C)C(=O)N[C@@H](C)C(=O)N[C@@H](C)C(=O)N[C@H](C(=O)N[C@@H](CC(C)C)C(N)=O)C(C)C)C(C)C)[C@@H](C)O [Peptide 15] (Ac-HS[Ala(1H-tetrazol-5-yl)]GIFT[Ala(1H-tetrazol-5-yl)]AYSRYRKQLAVKKYLAAVL-NH2)	97.3%	94.9%
CC[C@H](C)[C@H](NC(=O)CNC(=O)[C@H](Cc1nnn[nH]1)NC(=O)[C@H](CO)NC(=O)[C@H](Cc1c[nH]cn1)NC(C)=O)C(=O)N[C@@H](Cc1ccccc1)C(=O)N[C@H](C(=O)N[C@@H](Cc1nnn[nH]1)C(=O)N[C@@H](CO)C(=O)N[C@@H](Cc1ccc(O)cc1)C(=O)N[C@@H](C)C(=O)N[C@@H](CCCNC(=N)N)C(=O)N[C@@H](Cc1ccc(O)cc1)C(=O)N[C@@H](CCCNC(=N)N)C(=O)N[C@@H](CCCCN)C(=O)N[C@@H](CCC(N)=O)C(=O)N[C@@H](CC(C)C)C(=O)N[C@@H](C)C(=O)N[C@H](C(=O)N[C@@H](CCCCN)C(=O)N[C@@H](CCCCN)C(=O)N[C@@H](Cc1ccc(O)cc1)C(=O)N[C@@H](CC(C)C)C(=O)N[C@@H](C)C(=O)N[C@@H](C)C(=O)N[C@H](C(=O)N[C@@H](CC(C)C)C(N)=O)C(C)C)C(C)C)[C@@H](C)O [Peptide 16] (Ac-HS[Ala(1H-tetrazol-5-yl)]GIFT[Ala(1H-tetrazol-5-yl)]SYARYRKQLAVKKYLAAVL-NH2)	98.1%	93.5%
CC[C@H](C)[C@H](NC(=O)CNC(=O)[C@H](Cc1nnn[nH]1)NC(=O)[C@H](CO)NC(=O)[C@H](Cc1c[nH]cn1)NC(C)=O)C(=O)N[C@@H](Cc1ccccc1)C(=O)N[C@H](C(=O)N[C@@H](Cc1nnn[nH]1)C(=O)N[C@@H](CO)C(=O)N[C@@H](Cc1ccc(O)cc1)C(=O)N[C@@H](CO)C(=O)N[C@@H](CCCNC(=N)N)C(=O)N[C@@H](Cc1ccc(O)cc1)C(=O)N[C@@H](CCCNC(=N)N)C(=O)N[C@@H](CCCCN)C(=O)N[C@@H](C)C(=O)N[C@@H](CC(C)C)C(=O)N[C@@H](C)C(=O)N[C@H](C(=O)N[C@@H](CCCCN)C(=O)N[C@@H](CCCCN)C(=O)N[C@@H](Cc1ccc(O)cc1)C(=O)N[C@@H](CC(C)C)C(=O)N[C@@H](C)C(=O)N[C@@H](C)C(=O)N[C@H](C(=O)N[C@@H](CC(C)C)C(N)=O)C(C)C)C(C)C)[C@@H](C)O [Peptide 17] (Ac-HS[Ala(1H-tetrazol-5-yl)]GIFT[Ala(1H-tetrazol-5-yl)]SYSRYRKALAVKKYLAAVL-NH2)	97.8%	93.4%
CC[C@H](C)[C@H](NC(=O)CNC(=O)[C@H](Cc1nnn[nH]1)NC(=O)[C@H](CO)NC(=O)[C@H](Cc1c[nH]cn1)NC(C)=O)C(=O)N[C@@H](Cc1ccccc1)C(=O)N[C@H](C(=O)N[C@@H](Cc1nnn[nH]1)C(=O)N[C@@H](CO)C(=O)N[C@@H](Cc1ccc(O)cc1)C(=O)N[C@@H](CO)C(=O)N[C@@H](CCCNC(=N)N)C(=O)N[C@@H](Cc1ccc(O)cc1)C(=O)N[C@@H](CCCNC(=N)N)C(=O)N[C@@H](CCCCN)C(=O)N[C@@H](CCC(N)=O)C(=O)N[C@@H](C)C(=O)N[C@@H](C)C(=O)N[C@H](C(=O)N[C@@H](CCCCN)C(=O)N[C@@H](CCCCN)C(=O)N[C@@H](Cc1ccc(O)cc1)C(=O)N[C@@H](CC(C)C)C(=O)N[C@@H](C)C(=O)N[C@@H](C)C(=O)N[C@H](C(=O)N[C@@H](CC(C)C)C(N)=O)C(C)C)C(C)C)[C@@H](C)O [Peptide 18] (Ac-HS[Ala(1H-tetrazol-5-yl)]GIFT[Ala(1H-tetrazol-5-yl)]SYSRYRKQAAVKKYLAAVL-NH2)	96.7%	90.6%
CC[C@H](C)[C@H](NC(=O)CNC(=O)[C@H](Cc1nnn[nH]1)NC(=O)[C@H](CO)NC(=O)[C@H](Cc1c[nH]cn1)NC(C)=O)C(=O)N[C@@H](Cc1ccccc1)C(=O)N[C@H](C(=O)N[C@@H](Cc1nnn[nH]1)C(=O)N[C@@H](CO)C(=O)N[C@@H](Cc1ccc(O)cc1)C(=O)N[C@@H](CO)C(=O)N[C@@H](CCCNC(=N)N)C(=O)N[C@@H](Cc1ccc(O)cc1)C(=O)N[C@@H](CCCNC(=N)N)C(=O)N[C@@H](CCCCN)C(=O)N[C@@H](CCC(N)=O)C(=O)N[C@@H](CC(C)C)C(=O)N[C@@H](C)C(=O)N[C@@H](C)C(=O)N[C@@H](CCCCN)C(=O)N[C@@H](CCCCN)C(=O)N[C@@H](Cc1ccc(O)cc1)C(=O)N[C@@H](CC(C)C)C(=O)N[C@@H](C)C(=O)N[C@@H](C)C(=O)N[C@H](C(=O)N[C@@H](CC(C)C)C(N)=O)C(C)C)[C@@H](C)O [Peptide 19] (Ac-HS[Ala(1H-tetrazol-5-yl)]GIFT[Ala(1H-tetrazol-5-yl)]SYSRYRKQLAAKKYLAAVL-NH2)	95.8%	92.7%
